Laboratory results from ChEMBL document CHEMBL1201862, “PubChem BioAssay data set” (2004).
Active and inactive are the calls of the source.

Key:
[1] = molecular target: DNA damage-inducible transcript 3 protein (Mus musculus, UniProt P35639); assay type: functional, Cricetulus griseus
Protein skinhead-1 = molecular target: T1, Protein skinhead-1 (Caenorhabditis elegans, UniProt P34707); assay type: functional
T1 sequence (P34707 whole entry): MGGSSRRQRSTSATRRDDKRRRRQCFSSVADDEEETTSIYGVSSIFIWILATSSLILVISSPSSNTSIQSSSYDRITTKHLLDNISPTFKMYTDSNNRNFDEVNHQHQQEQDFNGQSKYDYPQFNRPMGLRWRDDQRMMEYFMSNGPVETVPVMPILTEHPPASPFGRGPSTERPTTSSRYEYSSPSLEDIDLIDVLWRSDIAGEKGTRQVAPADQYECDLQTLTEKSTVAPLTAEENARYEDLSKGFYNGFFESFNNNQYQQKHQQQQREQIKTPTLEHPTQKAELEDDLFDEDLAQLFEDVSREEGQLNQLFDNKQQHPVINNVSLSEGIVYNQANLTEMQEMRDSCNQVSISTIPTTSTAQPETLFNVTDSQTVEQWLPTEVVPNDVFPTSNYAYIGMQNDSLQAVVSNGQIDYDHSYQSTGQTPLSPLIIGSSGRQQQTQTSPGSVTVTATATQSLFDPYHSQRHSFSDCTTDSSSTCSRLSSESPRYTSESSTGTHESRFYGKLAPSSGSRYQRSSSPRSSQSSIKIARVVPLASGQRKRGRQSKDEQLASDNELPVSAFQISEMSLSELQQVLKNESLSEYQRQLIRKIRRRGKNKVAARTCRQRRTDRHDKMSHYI

[2] = molecular target: T2, Voltage-gated N-type calcium channel alpha-1B subunit/Amyloid beta A4 precursor protein-binding family A member 1 (Homo sapiens, UniProt Q00975+Q02410); assay type: protein assay
[3] = molecular target: T2, Voltage-gated N-type calcium channel alpha-1B subunit/Amyloid beta A4 precursor protein-binding family A member 1; assay type: protein assay; remark: listed apart in the source
[4] = molecular target: DNA (cytosine-5)-methyltransferase 1 (Homo sapiens, UniProt P26358); experiment: DNMT1 methyltransferase inhibitors, confirmation, biochemical, fluorescent molecular beacon (AID 602386); assay type: functional
[5] = A cytotoxicity screen of small molecule inhibitors of the PhoP region in Salmonella typhi identified in the primary screen. [Related pubchem assays: 1850, 1864, 1985 ]; assay type: functional
CHO-K1 = experiment: (§1) Counterscreen for antagonists of the orexin 1 receptor (OX1R; HCRTR1): Homogeneous time resolved fluorescence (HTRF)-based cell-based dose response assay to identify antagonists of the parental CHO-K1 cell line. [Related pubchem assays (depositor defined):AID434989, AID435008, AID463079, AID485270, AID492963, AID492964, AID492965, AID493232, AID504699, AID504701]; assay type: functional; conditions: Cricetulus griseus
[6] = molecular target: T3, Orexin/Hypocretin receptor type 1 (Homo sapiens, UniProt O43613); experiment: Homogeneous Time Resolved Fluorescence (HTRF)-based cell-based high throughput dose response assay for antagonists of the orexin 1 receptor (OX1R; HCRTR1). [Related pubchem assays (depositor defined):AID434989, AID435008, AID463079, AID485270, AID492963, AID492964, AID492965, AID493232, AID504717, AID504718]; assay type: functional
T3 sequence (O43613 whole entry): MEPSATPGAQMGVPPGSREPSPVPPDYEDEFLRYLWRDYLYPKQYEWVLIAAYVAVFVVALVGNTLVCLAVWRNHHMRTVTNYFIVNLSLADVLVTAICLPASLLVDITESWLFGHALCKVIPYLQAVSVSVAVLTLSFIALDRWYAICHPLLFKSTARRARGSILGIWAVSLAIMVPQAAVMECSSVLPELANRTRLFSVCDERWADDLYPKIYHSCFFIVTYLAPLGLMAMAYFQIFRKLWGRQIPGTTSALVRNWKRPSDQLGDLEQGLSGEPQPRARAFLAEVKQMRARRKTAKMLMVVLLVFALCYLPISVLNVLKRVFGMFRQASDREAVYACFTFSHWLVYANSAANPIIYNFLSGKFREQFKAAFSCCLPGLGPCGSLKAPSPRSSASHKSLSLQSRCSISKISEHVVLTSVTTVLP

[7] = molecular target: T3, Orexin/Hypocretin receptor type 1; experiment: Fluorescence-based cell-based high throughput dose response assay for antagonists of the orexin 1 receptor (OX1R; HCRTR1). [Related pubchem assays (depositor defined):AID434989, AID435008, AID463079, AID485270, AID492963, AID492964, AID492965, AID493232, AID504717, AID504718]; assay type: functional
[8] = as §1, with “Fluorescence-based” for “Homogeneous time resolved fluorescence (HTRF)-based”, “cell-based high throughput” for “cell-based”, “CHO” for “CHO-K1”; assay type: functional
[9] = molecular target: Polyadenylate-binding protein 1 (Homo sapiens, UniProt P11940); experiment: PABP poly(A) RNA binding inhibitors, primary screen, biochemical, fluorescence polarization, uHTS (AID 2014)
[10] = molecular target: Eukaryotic translation initiation factor 4H (Homo sapiens, UniProt Q15056); experiment: human eIF4H binding inhibitors, primary screen, translation initiation inhibitor project, biochemical, uHTS, fluorescence polarization (AID 2012)
[11] = molecular target: T4, Microphthalmia-associated transcription factor (Homo sapiens, UniProt O75030); experiment: TRPM1 promoter luciferase signal decrease, dose response, MITF inhibitor project, cell-based, SK-MEL-5, cherry-picked, set 3 (AID 493073); assay type: functional
T4 sequence (O75030 whole entry): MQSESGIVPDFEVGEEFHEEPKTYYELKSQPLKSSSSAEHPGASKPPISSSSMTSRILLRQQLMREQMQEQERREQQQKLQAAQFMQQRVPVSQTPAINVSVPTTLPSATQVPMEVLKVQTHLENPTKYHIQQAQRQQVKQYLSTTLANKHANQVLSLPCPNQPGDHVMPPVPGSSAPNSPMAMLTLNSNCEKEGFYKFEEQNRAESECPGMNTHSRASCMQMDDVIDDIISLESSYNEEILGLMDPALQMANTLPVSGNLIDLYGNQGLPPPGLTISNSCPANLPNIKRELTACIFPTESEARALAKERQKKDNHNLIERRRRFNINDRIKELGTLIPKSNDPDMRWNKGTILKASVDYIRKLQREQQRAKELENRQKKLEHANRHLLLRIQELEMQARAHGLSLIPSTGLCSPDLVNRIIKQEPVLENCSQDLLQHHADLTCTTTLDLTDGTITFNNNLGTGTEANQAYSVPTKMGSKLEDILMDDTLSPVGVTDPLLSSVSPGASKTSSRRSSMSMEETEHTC

[12] = growth suppression of beta-catenin-knockout colon cells, dose response, cell-based, HCT116, human colon tumor (AID 1045); assay type: functional;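 also: HCT116 colon tumor cells with beta catenin knocked out; cells exposed to compound for 60 hours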
[13] = molecular target: Neurotensin receptor type 1 (Homo sapiens, UniProt P30989); assay type: functional;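 also: Image-based confirmatory dose-response assay measuring agonist activity at NTR1; NTR1-expressing U2OS osteosarcoma cells imaged for beta-arrestin GFP spot formation; agonist potency where compounds increase beta-arrestin recruitment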
[14] = growth suppression of PTEN-null colon cells, dose response, cell-based, HCT116 PTEN knockout (AID 1047); assay type: functional;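 also: HCT116 colon tumor cells with PTEN knocked out; cells exposed to compound for 60 hours before readout; potency for loss of cell viability measured by luminescence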

T2 sequence (Q00975 whole entry): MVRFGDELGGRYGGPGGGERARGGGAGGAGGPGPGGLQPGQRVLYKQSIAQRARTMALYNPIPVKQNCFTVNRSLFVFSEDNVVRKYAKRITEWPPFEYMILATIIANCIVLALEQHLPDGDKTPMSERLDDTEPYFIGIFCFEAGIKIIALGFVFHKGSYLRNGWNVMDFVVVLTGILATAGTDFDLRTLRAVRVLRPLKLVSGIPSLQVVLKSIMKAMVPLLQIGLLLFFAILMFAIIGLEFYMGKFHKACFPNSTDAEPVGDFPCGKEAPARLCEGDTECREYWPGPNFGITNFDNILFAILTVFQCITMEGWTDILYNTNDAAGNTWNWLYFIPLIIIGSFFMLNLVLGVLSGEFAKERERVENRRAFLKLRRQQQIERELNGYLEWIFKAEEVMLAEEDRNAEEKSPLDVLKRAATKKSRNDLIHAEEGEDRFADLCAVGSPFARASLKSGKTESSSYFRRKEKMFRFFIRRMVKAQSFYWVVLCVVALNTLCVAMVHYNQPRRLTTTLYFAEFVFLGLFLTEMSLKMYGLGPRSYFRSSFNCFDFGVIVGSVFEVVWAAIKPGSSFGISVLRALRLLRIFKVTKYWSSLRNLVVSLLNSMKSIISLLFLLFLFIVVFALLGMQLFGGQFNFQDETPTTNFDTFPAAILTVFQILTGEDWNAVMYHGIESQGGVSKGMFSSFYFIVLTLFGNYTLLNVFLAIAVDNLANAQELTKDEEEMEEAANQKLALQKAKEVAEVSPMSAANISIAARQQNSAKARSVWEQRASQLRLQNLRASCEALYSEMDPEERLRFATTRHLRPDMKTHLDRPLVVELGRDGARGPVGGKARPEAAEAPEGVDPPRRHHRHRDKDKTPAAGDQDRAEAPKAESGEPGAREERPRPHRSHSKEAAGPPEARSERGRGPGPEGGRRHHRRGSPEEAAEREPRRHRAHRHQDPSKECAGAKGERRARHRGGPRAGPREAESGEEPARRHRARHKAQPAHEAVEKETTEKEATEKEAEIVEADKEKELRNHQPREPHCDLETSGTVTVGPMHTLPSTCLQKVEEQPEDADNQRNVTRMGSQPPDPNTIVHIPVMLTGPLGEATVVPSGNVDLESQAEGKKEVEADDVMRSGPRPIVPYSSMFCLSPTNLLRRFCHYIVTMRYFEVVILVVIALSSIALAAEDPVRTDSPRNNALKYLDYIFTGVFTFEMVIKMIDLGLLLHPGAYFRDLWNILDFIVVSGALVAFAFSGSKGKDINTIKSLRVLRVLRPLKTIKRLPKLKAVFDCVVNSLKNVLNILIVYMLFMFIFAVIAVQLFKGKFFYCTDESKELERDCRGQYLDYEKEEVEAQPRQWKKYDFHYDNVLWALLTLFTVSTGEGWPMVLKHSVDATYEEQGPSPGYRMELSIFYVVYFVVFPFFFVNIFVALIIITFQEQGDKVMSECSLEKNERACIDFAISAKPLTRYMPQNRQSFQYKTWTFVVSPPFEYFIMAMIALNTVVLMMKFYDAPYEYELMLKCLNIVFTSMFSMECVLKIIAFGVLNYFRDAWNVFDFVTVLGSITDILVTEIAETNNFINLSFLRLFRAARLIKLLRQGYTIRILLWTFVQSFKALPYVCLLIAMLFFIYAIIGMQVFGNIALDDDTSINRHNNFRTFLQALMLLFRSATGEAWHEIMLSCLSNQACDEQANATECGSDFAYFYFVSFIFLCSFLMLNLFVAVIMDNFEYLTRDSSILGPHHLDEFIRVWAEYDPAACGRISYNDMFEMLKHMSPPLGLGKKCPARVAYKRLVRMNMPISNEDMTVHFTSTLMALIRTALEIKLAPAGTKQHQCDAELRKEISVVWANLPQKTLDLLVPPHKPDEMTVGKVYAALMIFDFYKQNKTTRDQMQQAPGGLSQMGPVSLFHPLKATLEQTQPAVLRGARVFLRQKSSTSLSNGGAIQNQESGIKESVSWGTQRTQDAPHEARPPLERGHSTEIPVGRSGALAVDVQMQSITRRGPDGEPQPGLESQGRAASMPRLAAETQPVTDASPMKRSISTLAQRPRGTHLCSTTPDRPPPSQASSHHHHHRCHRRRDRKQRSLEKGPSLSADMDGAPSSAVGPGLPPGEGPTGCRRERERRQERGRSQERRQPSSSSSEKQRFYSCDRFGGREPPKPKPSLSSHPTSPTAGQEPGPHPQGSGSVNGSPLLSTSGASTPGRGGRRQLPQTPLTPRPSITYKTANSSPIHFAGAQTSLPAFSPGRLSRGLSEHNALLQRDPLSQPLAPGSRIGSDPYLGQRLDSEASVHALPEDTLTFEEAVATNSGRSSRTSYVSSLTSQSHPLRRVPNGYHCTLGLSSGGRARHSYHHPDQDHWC
T2 sequence (Q02410 whole entry): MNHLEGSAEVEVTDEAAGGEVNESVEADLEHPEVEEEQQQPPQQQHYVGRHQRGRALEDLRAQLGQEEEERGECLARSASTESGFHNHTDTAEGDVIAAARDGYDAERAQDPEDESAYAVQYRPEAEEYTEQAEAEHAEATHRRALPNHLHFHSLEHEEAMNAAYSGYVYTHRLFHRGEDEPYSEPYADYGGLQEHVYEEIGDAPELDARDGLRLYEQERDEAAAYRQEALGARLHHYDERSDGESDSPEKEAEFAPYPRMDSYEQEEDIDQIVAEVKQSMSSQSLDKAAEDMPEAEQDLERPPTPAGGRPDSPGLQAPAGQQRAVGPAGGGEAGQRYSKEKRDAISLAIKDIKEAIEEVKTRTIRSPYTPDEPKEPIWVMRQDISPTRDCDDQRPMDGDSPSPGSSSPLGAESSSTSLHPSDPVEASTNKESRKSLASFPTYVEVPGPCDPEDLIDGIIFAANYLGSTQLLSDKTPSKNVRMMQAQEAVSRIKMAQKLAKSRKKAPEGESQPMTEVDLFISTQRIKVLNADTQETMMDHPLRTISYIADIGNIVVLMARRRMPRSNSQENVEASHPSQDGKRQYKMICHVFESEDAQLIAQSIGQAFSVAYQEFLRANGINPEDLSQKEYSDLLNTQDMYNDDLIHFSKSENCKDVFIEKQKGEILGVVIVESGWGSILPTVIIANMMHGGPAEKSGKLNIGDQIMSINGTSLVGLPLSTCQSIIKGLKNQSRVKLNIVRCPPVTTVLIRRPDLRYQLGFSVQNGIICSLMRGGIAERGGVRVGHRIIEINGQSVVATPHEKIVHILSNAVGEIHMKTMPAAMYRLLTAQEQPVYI
Chain of DNA damage-inducible transcript 3 protein (P35639 whole entry): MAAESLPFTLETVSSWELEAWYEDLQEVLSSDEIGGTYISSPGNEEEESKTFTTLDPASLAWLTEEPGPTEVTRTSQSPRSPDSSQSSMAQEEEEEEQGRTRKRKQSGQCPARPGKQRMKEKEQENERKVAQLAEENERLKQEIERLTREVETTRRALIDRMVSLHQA
Chain of DNA (cytosine-5)-methyltransferase 1 (P26358 whole entry): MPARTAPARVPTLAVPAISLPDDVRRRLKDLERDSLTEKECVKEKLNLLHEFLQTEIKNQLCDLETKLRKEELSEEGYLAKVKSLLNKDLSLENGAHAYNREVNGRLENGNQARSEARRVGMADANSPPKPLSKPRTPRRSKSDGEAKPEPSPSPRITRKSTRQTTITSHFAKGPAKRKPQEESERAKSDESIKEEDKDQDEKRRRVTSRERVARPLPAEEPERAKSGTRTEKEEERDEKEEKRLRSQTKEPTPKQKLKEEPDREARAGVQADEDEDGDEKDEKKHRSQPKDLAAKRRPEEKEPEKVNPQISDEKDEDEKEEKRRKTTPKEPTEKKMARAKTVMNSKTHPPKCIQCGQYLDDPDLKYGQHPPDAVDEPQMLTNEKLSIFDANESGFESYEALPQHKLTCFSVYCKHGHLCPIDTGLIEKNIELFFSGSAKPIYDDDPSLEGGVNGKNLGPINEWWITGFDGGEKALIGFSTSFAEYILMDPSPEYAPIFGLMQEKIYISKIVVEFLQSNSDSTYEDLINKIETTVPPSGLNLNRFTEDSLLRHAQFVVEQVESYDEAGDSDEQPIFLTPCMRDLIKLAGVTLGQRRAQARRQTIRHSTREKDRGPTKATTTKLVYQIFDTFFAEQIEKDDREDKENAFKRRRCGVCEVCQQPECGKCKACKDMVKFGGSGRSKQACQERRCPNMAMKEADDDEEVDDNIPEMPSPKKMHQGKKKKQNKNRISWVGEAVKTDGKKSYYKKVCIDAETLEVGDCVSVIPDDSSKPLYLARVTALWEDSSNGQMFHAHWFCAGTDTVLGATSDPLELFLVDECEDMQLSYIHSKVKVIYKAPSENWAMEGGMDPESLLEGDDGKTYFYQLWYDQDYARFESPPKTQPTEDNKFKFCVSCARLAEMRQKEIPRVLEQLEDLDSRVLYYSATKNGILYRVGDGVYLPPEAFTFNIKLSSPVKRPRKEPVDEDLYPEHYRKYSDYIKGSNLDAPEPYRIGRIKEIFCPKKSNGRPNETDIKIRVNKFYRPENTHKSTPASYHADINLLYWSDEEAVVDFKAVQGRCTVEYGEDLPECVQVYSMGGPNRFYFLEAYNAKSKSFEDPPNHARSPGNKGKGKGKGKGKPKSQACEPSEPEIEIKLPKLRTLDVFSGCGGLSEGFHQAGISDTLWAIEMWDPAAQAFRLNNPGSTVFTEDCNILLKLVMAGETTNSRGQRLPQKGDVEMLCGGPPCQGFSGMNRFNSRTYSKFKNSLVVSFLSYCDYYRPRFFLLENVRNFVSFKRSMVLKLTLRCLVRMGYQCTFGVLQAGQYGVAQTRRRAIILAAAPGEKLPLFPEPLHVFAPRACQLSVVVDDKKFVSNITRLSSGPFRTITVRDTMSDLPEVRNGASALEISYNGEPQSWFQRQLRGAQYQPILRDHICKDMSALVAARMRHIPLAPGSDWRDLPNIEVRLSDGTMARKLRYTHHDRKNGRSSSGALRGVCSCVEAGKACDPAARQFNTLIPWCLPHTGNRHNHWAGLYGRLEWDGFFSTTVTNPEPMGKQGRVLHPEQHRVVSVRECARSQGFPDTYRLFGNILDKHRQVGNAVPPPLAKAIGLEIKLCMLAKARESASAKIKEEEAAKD

With `FC(F)(F)c1cc(-c2cccs2)nc(-n2cc(Br)cn2)n1` the “Absolute IC50 (CHOP)” value [1] was 10 µM and the IC50 (Protein skinhead-1) was > 100 µM (inactive).

With `O=C(CN1C(=O)S/C(=C\c2ccc(-c3cc(C(=O)O)ccc3Cl)o2)C1=O)Nc1ccc2c(c1)OCO2` the IC50 [2] was > 50 µM (inactive), the IC50 [3] was > 56.8 µM (not active) and the IC50 [4] was > 99 µM (inactive).

In the case of `Cc1c(C(=O)N2CCN(Cc3ccccc3)CC2)sc2ncnc(N3CCOCC3)c12`, the EC50 [5] is reported as > 50 µM (active).

In the case of `Cc1nc2cc(NC(=O)COc3ccccc3C#N)ccc2n1-c1ccccc1`, the IC50 (CHO-K1) is reported as > 66.2 µM (inactive), the IC50 [6] is reported as 1.61 µM (active) and the IC50 [7] is reported as 3.45 µM (active). The IC50 [8] was > 49.7 µM (inactive).

In the case of `CCN1C(NCCc2ccccn2)=N[C@@H](c2cccc(F)c2)C(C(=O)OC)=C1C`, the IC50 [9] is reported as 13.4 µM (active) and the IC50 [10] is reported as > 100 µM (inactive).

In the case of `COc1ccc(C2=NN(C(=O)c3ccco3)C(c3cc4ccccc4nc3Cl)C2)cc1` (stereo unspecified), the “Absolute IC50 (CHOP)” value [1] is reported as 10 µM.

With `Cn1cc([N+](=O)[O-])c(C(=O)Nc2nc(-c3ccc(Cl)cc3)cs2)n1` the AC50 [11] was 10.5 µM (active), the EC50 [12] was 0.523 µM (active) and the EC50 [13] was 3.8 µM (active). The EC50 [14] was 0.596 µM (active).

In the case of `Cc1cc(C)nc(N=C(N)Nc2ccc(F)c([N+](=O)[O-])c2)n1`, the IC50 (CHO-K1) is reported as 11.6 µM (inactive), the IC50 [6] is reported as 10.1 µM (inactive) and the IC50 [7] is reported as 15.1 µM (inactive). For the same compound, the IC50 [8] was 17.8 µM (inactive).
